Laboratory results published in PubChem BioAssay (NCI).
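At the GI50, growth is halved. TGI: concentration producing complete growth inhibition.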

How the values were obtained:
Assay in all cases: NCI-60 cell line screen, 384-well format
[1] = system: HS 578T breast
[2] = system: SR leukemia
[3] = system: MCF7 breast
[4] = system: EKVX NSCLC
[5] = system: HCT-116 colon
[6] = system: SF-539 CNS
[7] = system: HL-60(TB) leukemia
[8] = system: IGROV1 ovarian
[9] = system: SW-620 colon
[10] = system: NCI-H460 NSCLC
[11] = system: M14 melanoma
[12] = system: HCC-2998 colon
[13] = system: UO-31 renal
[14] = system: KM12 colon
[15] = system: MDA-MB-435 melanoma
[16] = system: OVCAR-5 ovarian
[17] = system: PC-3 prostate
[18] = system: CAKI-1 renal
[19] = system: UACC-62 melanoma
[20] = system: TK-10 renal
[21] = system: MDA-MB-231 breast
[22] = system: LOX IMVI melanoma
[23] = system: K-562 leukemia
[24] = system: SF-268 CNS
[25] = system: SF-295 CNS
[26] = system: CCRF-CEM leukemia
[27] = system: SNB-19 CNS
[28] = system: NCI-H23 lung
[29] = system: T-47D breast
[30] = system: NCI-H226 lung
[31] = system: OVCAR-3 ovarian
[32] = system: MDA-MB-468 breast
[33] = system: HOP-62 NSCLC
[34] = system: NCI-H522 lung
[35] = system: UACC-257 melanoma
[36] = system: OVCAR-8 ovarian
[37] = system: RXF 393 renal
[38] = system: OVCAR-4 ovarian
[39] = system: SN12C renal
[40] = system: HT29 colon
[41] = system: 786-0 renal
[42] = system: SK-OV-3 ovarian
[43] = system: SK-MEL-28 melanoma
[44] = system: COLO 205 colon
[45] = system: SK-MEL-2 melanoma
[46] = system: RPMI-8226 leukemia
[47] = system: DU-145 prostate
[48] = system: U251 glioblastoma
[49] = system: BT-549 breast
[50] = system: A549 NSCLC
[51] = system: NCI/ADR-RES ovarian
[52] = system: HCT-15 colon
[53] = system: NCI-H322M lung
[54] = system: SNB-75 CNS
[55] = system: MOLT-4 leukemia
[56] = system: MALME-3M melanoma
[57] = system: SK-MEL-5 melanoma

## C=CCn1c(=O)c2cnc(Nc3ccc(N4CCN(C)CC4)cc3)nc2n1-c1cccc(C(C)(C)O)n1
[1]
  GI50: 0.154 µM
  TGI: 0.529 µM
[2]
  GI50: 0.0584 µM
  TGI: 0.184 µM
[3]
  GI50: 0.216 µM
  TGI: 11.5 µM
[4]
  GI50: 0.56 µM
  TGI: 4.8 µM
[5]
  GI50: 0.308 µM
  TGI: 2.24 µM
[6]
  GI50: 0.051 µM
  TGI: 0.178 µM
[7]
  GI50: 0.148 µM
  TGI: 0.284 µM
[8]
  GI50: 0.173 µM
  TGI: 1.09 µM
[9]
  GI50: 0.352 µM
  TGI: 1.93 µM
[10]
  GI50: 0.574 µM
  TGI: 3.42 µM
[11]
  GI50: 0.0514 µM
  TGI: 0.246 µM
[12]
  GI50: 0.203 µM
  TGI: 0.555 µM
[13]
  GI50: 0.274 µM
  TGI: 1.25 µM
[14]
  GI50: 0.218 µM
  TGI: 0.649 µM
[15]
  GI50: 0.201 µM
  TGI: 0.413 µM
[16]
  GI50: 0.596 µM
  TGI: 6.1 µM
[17]
  GI50: 0.724 µM
  TGI: 21 µM
[18]
  GI50: 0.0723 µM
  TGI: 11.2 µM
[19]
  GI50: 0.354 µM
  TGI: 12.8 µM
[20]
  GI50: 0.171 µM
  TGI: 0.7 µM
[21]
  GI50: 0.372 µM
  TGI: 7.33 µM
[22]
  GI50: 0.626 µM
  TGI: 2.71 µM
[23]
  GI50: 0.175 µM
  TGI: 0.347 µM
[24]
  GI50: 0.559 µM
  TGI: 10.7 µM
[25]
  GI50: 0.357 µM
  TGI: 2.26 µM
[26]
  GI50: 0.0699 µM
  TGI: 0.197 µM
[27]
  GI50: 0.502 µM
  TGI: 15.4 µM
[28]
  GI50: 0.0945 µM
  TGI: 0.254 µM
[29]
  GI50: 5.88 µM
  TGI: 28.9 µM
[30]
  GI50: 1.41 µM
  TGI: 9.22 µM
[31]
  GI50: 0.13 µM
  TGI: 0.328 µM
[32]
  GI50: 0.22 µM
  TGI: 0.492 µM
[33]
  GI50: 0.406 µM
  TGI: 2.13 µM
[34]
  GI50: 0.135 µM
  TGI: 0.286 µM
[35]
  GI50: 10 µM
  TGI: 21.9 µM
[36]
  GI50: 0.219 µM
  TGI: 0.566 µM
[37]
  GI50: 0.0487 µM
  TGI: 0.196 µM
[38]
  GI50: 0.157 µM
  TGI: 0.407 µM
[39]
  GI50: 0.311 µM
  TGI: 2.27 µM
[40]
  GI50: 0.319 µM
  TGI: 15.2 µM
[41]
  GI50: 0.183 µM
  TGI: 0.414 µM
[42]
  GI50: 0.0766 µM
  TGI: 1.46 µM
[43]
  GI50: 3.44 µM
  TGI: 17.1 µM
[44]
  GI50: 0.294 µM
  TGI: 0.829 µM
[45]
  GI50: 0.16 µM
  TGI: 0.393 µM
[46]
  GI50: 0.26 µM
  TGI: 1.12 µM
[47]
  GI50: 0.262 µM
  TGI: 1.81 µM
[48]
  GI50: 0.419 µM
  TGI: 6.77 µM
[49]
  GI50: 0.115 µM
  TGI: 0.299 µM
[50]
  GI50: 1.02 µM
  TGI: 12.8 µM
[51]
  GI50: 1.81 µM
  TGI: 4.95 µM
[52]
  GI50: 0.326 µM
  TGI: 1.21 µM
[53]
  GI50: 0.233 µM
  TGI: 0.935 µM
[54]
  GI50: 1.21 µM
  TGI: 4.35 µM
[55]
  GI50: 0.0299 µM
  TGI: 0.103 µM
[56]
  GI50: 0.0529 µM
  TGI: 0.342 µM
[57]
  GI50: 0.187 µM
  TGI: 0.46 µM
